Data from patent US6444616B1, “Substituted p-trifluoromethylphenyluracils” (Bayer Aktiengesellschaft, priority 1999, dated 2002).

Experiments:
Ipomoea = assay: Postemergence test; assay type: in vivo; settings: plants 5-15 cm sprayed, rated after 3 weeks, application rate not stated
Protocol: (§1) Solvent: 5 parts by weight of acetone
(§2) Emulsifier: 1 part by weight of alkylaryl polyglycol ether
(§3) To produce an effective preparation of active compound, 1 part by weight of active compound is mixed with the stated amount of solvent, the stated amount of emulsifier is added and the concentrate is diluted with water to the desired concentration.
(§4) Test plants which have a height of 5-15 cm are sprayed with the preparation of active compound in such a way as to apply the particular amounts of active compound desired per unit area. The concentration of the spray liquor is chosen so that the particular amounts of active compound desired are applied in 1000 l of water/ha.
(§5) After 3 weeks, the degree of damage to the plants is rated in % damage in comparison to the development of the untreated control.
(§6) 0%=no effect (like untreated control)

Matricaria = assay: Postemergence test; assay type: in vivo; settings: plants 5-15 cm sprayed, rated after 3 weeks, application rate not stated
Protocol: as §1, §2, §3, §4, §5, §6

Solanum = assay: Postemergence test; assay type: in vivo; settings: plants 5-15 cm sprayed, rated after 3 weeks, application rate not stated
Protocol: as §1, §2, §3, §4, §5, §6

datura = assay: Postemergence test; assay type: in vivo; settings: plants 5-15 cm sprayed, rated after 3 weeks, application rate not stated
Protocol: as §1, §2, §3, §4, §5, §6

Sinapis [1] = assay: Postemergence test; assay type: in vivo; settings: plants 5-15 cm sprayed, rated after 3 weeks, application rate not stated
Protocol: as §1, §2, §3, §4, §5, §6

polygonum = assay: Postemergence test; assay type: in vivo; settings: plants 5-15 cm sprayed, rated after 3 weeks, application rate not stated
Protocol: as §1, §2, §3, §4, §5, §6

Abutilon = assay: Postemergence test; assay type: in vivo; settings: plants 5-15 cm sprayed, rated after 3 weeks, application rate not stated
Protocol: as §1, §2, §3, §4, §5, §6

Sinapis [2] = assay: Pre-emergence test; assay type: in vivo; settings: rated after 3 weeks, application rate not stated
Protocol: as §1, §2
(§7) To produce a suitable preparation of active compound, 1 part by weight of active compound is mixed with the stated amount of solvent, the stated amount of emulsifier is added and the concentrate is diluted with water to the desired concentration.
(§8) Seeds of the test plants are sown in normal soil. After about 24 hours, the soil is sprayed with the preparation of active compound in such a way as to apply the particular amounts of active compound desired per unit area. The concentration of the spray liquor is chosen so that the particular amounts of active compound desired are applied in 1000 l of water/ha.
(§9) After 3 weeks, the degree of damage to plants is rated in % damage in comparison to the development of the untreated control.
as §6

Cyperus = assay: Pre-emergence test; assay type: in vivo; settings: rated after 3 weeks, application rate not stated, 0%=no effect, 100%=total destruction
Protocol: as §1, §2, §7, §8, §9, §6

| SMILES | melting point [°C] | degree of damage to the plants, % damage vs untreated control (Ipomoea) [%] | degree of damage to the plants, % damage vs untreated control (Matricaria) [%] | degree of damage to the plants, % damage vs untreated control (Solanum) [%] | degree of damage to the plants, % damage vs untreated control (datura) [%] | degree of damage to the plants, % damage vs untreated control (Sinapis [1]) [%] | degree of damage to the plants, % damage vs untreated control (polygonum) [%] | degree of damage to the plants, % damage vs untreated control (Abutilon) [%] | degree of damage to plants, % damage vs untreated control (Sinapis [2]) [%] | degree of damage to plants, % damage vs untreated control (Cyperus) [%] |
| --- | --- | --- | --- | --- | --- | --- | --- | --- | --- | --- |
| O=c1cc(C(F)(F)F)[nH]c(=O)n1-c1cc(F)c(C(F)(F)F)cc1F [Example 1, 1-(2,5-difluoro4-trifluoromethyl-phenyl)-3,6-dihydro-2,6-dioxo-4-trifluoromethyl-1(2H)-pyrimidine] | 217 | – | – | – | – | – | – | – | – | – |
| Cn1c(C(F)(F)F)cc(=O)n(-c2cc(F)c(C(F)(F)F)cc2F)c1=O [Example 2, 1-(2,5-difluoro-4-trifluoromethyl-phenyl)-3,6-dihydro-2,6-dioxo-3-methyl-4-trifluoromethyl-1 (2H)-pyrimidine] | 110 | 100 | 100 | 100 | 100 | 100 | 95 | 100 | 100 | 80 |
| Nn1c(C(F)(F)F)cc(=O)n(-c2cc(F)c(C(F)(F)F)cc2F)c1=O [Example 3, 3-amino-1-(2,5-difluoro-4-trifluoromethyl-phenyl)-3,6-dihydro-2,6-dioxo-4-trifluoromethyl-1 (2H)-pyrimidine] | 157 | – | – | – | – | – | – | – | – | – |
| CS(=O)(=O)Nc1cc(-n2c(=O)cc(C(F)(F)F)[nH]c2=O)c(F)cc1C(F)(F)F [Example 4] | 227 | 100 | 100 | 100 | 100 | 100 | 95 | 100 | 100 | 80 |
| Cn1c(C(F)(F)F)cc(=O)n(-c2cc(NS(C)(=O)=O)c(C(F)(F)F)cc2F)c1=O [Example 5] | 163 | 100 | 100 | 100 | 100 | 100 | 95 | 100 | 100 | 80 |
